# According to PubChem BioAssay (NCI):
#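 Following 48 hours of exposure in 96-well plates, responses at five concentrations were used to interpolate endpoints linearly. The concentration for full growth arrest is given as TGI.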
# Experiments:
# Test in all cases: NCI tumour cell line growth inhibition, 48 h
# [1] = tested on: MALME-3M melanoma
# [2] = tested on: PC-3 prostate
# [3] = tested on: HCT-116 colon
# [4] = tested on: A498 renal
# [5] = tested on: COLO 205 colon
# [6] = tested on: DU-145 prostate
# [7] = tested on: OVCAR-5 ovarian
# [8] = tested on: NCI/ADR-RES ovarian
# [9] = tested on: 786-0 renal
# [10] = tested on: A549 NSCLC
# [11] = tested on: SR leukemia
# [12] = tested on: IGROV1 ovarian
# [13] = tested on: SK-MEL-2 melanoma
# [14] = tested on: SNB-75 CNS
# [15] = tested on: ACHN renal
# [16] = tested on: M14 melanoma
# [17] = tested on: KM12 colon
# [18] = tested on: UACC-257 melanoma
# [19] = tested on: HL-60(TB) leukemia
# [20] = tested on: RPMI-8226 leukemia
# [21] = tested on: BT-549 breast
# [22] = tested on: MDA-MB-435
# [23] = tested on: SK-MEL-28 melanoma
# [24] = tested on: OVCAR-4 ovarian
# [25] = tested on: SF-539 CNS
# [26] = tested on: SF-268 CNS
# [27] = tested on: OVCAR-8 ovarian
# [28] = tested on: MDA-MB-231 breast
# [29] = tested on: HOP-92 NSCLC
# [30] = tested on: SW-620 colon
# [31] = tested on: UACC-62 melanoma
# [32] = tested on: HT29 colon
# [33] = tested on: U251 CNS
# [34] = tested on: TK-10 renal
# [35] = tested on: SNB-19 CNS
# [36] = tested on: NCI-H460 lung
# [37] = tested on: MOLT-4 leukemia
# [38] = tested on: MDA-N
# [39] = tested on: HOP-62 NSCLC
# [40] = tested on: SK-MEL-5 melanoma
# [41] = tested on: SN12C renal
# [42] = tested on: K-562 leukemia
# [43] = tested on: NCI-H23 lung
# [44] = tested on: HCT-15 colon
# [45] = tested on: UO-31 renal
# [46] = tested on: HS 578T breast
# [47] = tested on: OVCAR-3 ovarian
# [48] = tested on: SK-OV-3 ovarian
# [49] = tested on: CAKI-1 renal
# [50] = tested on: SF-295 CNS
# [51] = tested on: MCF7 breast
# [52] = tested on: T-47D breast
# [53] = tested on: NCI-H226 lung
# [54] = tested on: CCRF-CEM leukemia
# [55] = tested on: LOX IMVI melanoma
# [56] = tested on: EKVX NSCLC
# [57] = tested on: RXF 393 renal
structure (smiles),measurement,setting,value
O=C(/C=C/c1ccccc1O)/C=C/c1ccccc1O,TGI,[1],4.27 µM
same,TGI,[2],3.38 µM
same,TGI,[3],1.23 µM
same,TGI,[4],4.18 µM
same,TGI,[5],3.4 µM
same,TGI,[6],3.2 µM
same,TGI,[7],3.14 µM
same,TGI,[8],4.88 µM
same,TGI,[9],3.22 µM
same,TGI,[10],6.38 µM
same,TGI,[11],> 100 µM
same,TGI,[12],3.31 µM
same,TGI,[13],23.1 µM
same,TGI,[14],19.5 µM
same,TGI,[15],3.35 µM
same,TGI,[16],3.55 µM
same,TGI,[17],3.3 µM
same,TGI,[18],21.8 µM
same,TGI,[19],7.62 µM
same,TGI,[20],0.76 µM
same,TGI,[21],3.28 µM
same,TGI,[22],4.64 µM
same,TGI,[23],3.67 µM
same,TGI,[24],7.7 µM
same,TGI,[25],3.57 µM
same,TGI,[26],0.905 µM
same,TGI,[27],5.08 µM
same,TGI,[28],5.29 µM
same,TGI,[29],4.87 µM
same,TGI,[30],4.36 µM
same,TGI,[31],3.31 µM
same,TGI,[32],4.85 µM
same,TGI,[33],2.89 µM
same,TGI,[34],3.27 µM
same,TGI,[35],4.86 µM
same,TGI,[36],3.08 µM
same,TGI,[37],> 100 µM
same,TGI,[38],3.93 µM
same,TGI,[39],5.76 µM
same,TGI,[40],2.8 µM
same,TGI,[41],3.65 µM
same,TGI,[42],> 100 µM
same,TGI,[43],3.84 µM
same,TGI,[44],5.1 µM
same,TGI,[45],3.59 µM
same,TGI,[46],12.3 µM
same,TGI,[47],1.26 µM
same,TGI,[48],4.34 µM
same,TGI,[49],3.21 µM
same,TGI,[50],3.89 µM
CCCCCCOc1ccc(NC2=C(Cl)C(=O)c3ncccc3C2=O)cc1,TGI,[1],3.77 µM
same,TGI,[2],3.97 µM
same,TGI,[3],2.38 µM
same,TGI,[4],> 10 µM
same,TGI,[51],2.63 µM
same,TGI,[6],2.83 µM
same,TGI,[7],> 10 µM
same,TGI,[9],5.75 µM
same,TGI,[10],8.96 µM
same,TGI,[12],7.85 µM
same,TGI,[14],3.93 µM
same,TGI,[15],> 10 µM
same,TGI,[16],4.04 µM
same,TGI,[17],3.14 µM
same,TGI,[18],4.54 µM
same,TGI,[21],3.56 µM
same,TGI,[22],3.27 µM
same,TGI,[23],3.04 µM
same,TGI,[25],3.3 µM
same,TGI,[26],4.07 µM
same,TGI,[52],4.03 µM
same,TGI,[27],> 10 µM
same,TGI,[29],> 10 µM
same,TGI,[30],5.38 µM
same,TGI,[53],> 10 µM
same,TGI,[31],2.75 µM
same,TGI,[54],5.96 µM
same,TGI,[55],4.15 µM
same,TGI,[32],> 10 µM
same,TGI,[33],3.08 µM
same,TGI,[56],> 10 µM
same,TGI,[34],> 10 µM
same,TGI,[35],4.51 µM
same,TGI,[36],3.18 µM
same,TGI,[37],> 10 µM
same,TGI,[38],2.97 µM
same,TGI,[57],3.7 µM
same,TGI,[39],3.88 µM
same,TGI,[40],2.92 µM
same,TGI,[41],3.12 µM
same,TGI,[42],> 10 µM
same,TGI,[43],4.34 µM
same,TGI,[44],4.64 µM
same,TGI,[45],2.72 µM
same,TGI,[46],9 µM
same,TGI,[47],6.25 µM
same,TGI,[48],> 10 µM
same,TGI,[50],3.59 µM
